Source: article PMC7932537, “Quantitative profiling of protease specificity” (PLoS Computational Biology, 2021)

System: MMP-2
Assay: Substrate phage display with NGS: relative probability (RP) of P3-P1' tetramer clusters
Type: biochemical, human
Conditions: MMP2 - no binning; average relative probability (RP) of the P3-P1' tetramer; redundant tetramers have been averaged out

In order of falling avg_RP:
1. PAYL  33.0829
2. PMGM  28.512
3. ALGL  26.3282
4. IRWL  25.5858
5. VHAL  19.753
6. HQWL  19.2059
7. AHHL  16.717
8. AQHL  16.6778
9. LLHL  16.5808
10. PLRI  15.7039
11. LMAL  15.4189
12. ALPM  15.3537
13. YAWM  14.9473
14. PNRL  14.3701
15. YAHM  12.8446
16. GAWL  11.7256
17. HQSL  10.5998
18. VKFL  9.5539
19. IYGL  9.4242
20. FATL  9.1497
21. VNFL  7.2989
22. ALWL  7.2418
23. IWAL  5.7953
24. YRSM  5.2577
25. PFMI  4.6361
26. VHML  3.9806
27. ALDL  2.4602
28. AWNM  2.0017
29. YLNY  1.6791
30. SYPL  1.464
31. TMAL  0.4939
32. AFHI  0.4414
33. ANSI  0.424
34. YLNL  0.3873
35. GHNL  0.2721
36. ALDM  0.2655
37. SQHL  0.2367
38. HRSI  0.1819
39. MHEL  0.0484
40. GWDL  0

Same assay, conditions: MMP2 - no binning; average relative probability of the P3-P1' tetramer; redundant tetramers have been averaged out

In order of falling avg_RP:
1. PSWL  35.705
2. PAWM  34.3571
3. PQSL  33.5105
4. PIPL  33.1236
5. IAHL  32.9345
6. PSGM  32.7604
7. PSNM  32.3748
8. MASL [P3-P1' tetramer cluster]  31.6834
9. LSHL  29.8814
10. PSFL  29.537
11. PTSL  28.926
12. VGML  28.5913
13. PLSQ  26.5842
14. PQSW  25.7009
15. IQSL  25.2682
16. LGTL  24.6198
17. WAPL  23.9342
18. PFHL  23.4724
19. ISYM  22.3091
20. LGMM  22.231
21. AYNL  20.8713
22. SAWL  18.9346
23. LHSL  18.7402
24. LNSL  18.3633
25. WSNL  17.9326
26. LYGL  17.2472
27. ARSL  17.186
28. VYSL  16.838
29. PYTL  16.827
30. YGEL  16.6627
31. VWAL  12.7502
32. LGCL  12.7261
33. LNYL  12.3459
34. YGHL  11.3746
35. AYNM  10.8408
36. GASL  9.5377
37. LRQM  8.6765
38. AQML  8.608
39. LWSL  8.3838
40. IQTM  7.1082
41. WQNL  6.2916
42. MMSL  6.1978
43. INML  5.8285
44. FRSM  5.3885
45. VFHM  5.168
46. AMNI  4.1669
47. AHQL  4.1004
48. ANYL  3.9008
49. ARML  2.9901
50. TLNL  2.7643
51. VLMM  2.7364
52. WLAL  1.2175
53. SFNL  1.0952
54. PDFL  1.02
55. SYWL  0.9791
56. MMQL  0.816
57. GLAL  0.6848
58. LWYL  0.6796
59. WESL  0.6249
60. VYAW  0.6193
61. SFAL  0.5631
62. AQDL  0.5121
63. WRHL  0.4087
64. LLDL  0.3542
65. GNSL  0.2884
66. YYGL  0.142
67. IFRL  0.1412
68. LMRL  0.1149
69. SGEL  0.1149
70. YMGL  0.0982
71. VMRM  0.0611
72. HMRL  0.0574
73. GFQL  0.0467
74. VHQM  0
75. GLEL  0
76. FWHL  0
77. SMRL  0

Same assay, conditions: MMP2 - no binning; average relative probability of the tetramer; redundant tetramers averaged out

In order of falling avg_RP:
1. VGAL  32.8382
2. PRSW  32.796
3. MAAL  32.6562
4. PVAM  31.7171
5. PYPL  30.8058
6. PMHL  30.095
7. PLHM  30.0095
8. PRPV  29.4989
9. VRGL  29.092
10. PSAQ  28.0379
11. PRYM  28.0367
12. LRNL  27.1336
13. PVHM  25.8779
14. ARAM  25.2992
15. LAAW  24.7038
16. IATL  24.2778
17. SANL  23.7816
18. AMGL  23.7576
19. WRAL  22.4074
20. PHGF  21.975
21. PFML  19.624
22. VLNL  18.9065
23. YAHL  18.7061
24. VRYL  18.3724
25. SLAW  18.2943
26. MSYL  18.2293
27. PSLY  18.1013
28. VYGL  17.3788
29. VAKM  17.3627
30. PWNY  16.9576
31. PQMI  16.6558
32. VYWL  16.4375
33. PYSW  16.4352
34. PRGS  16.3331
35. PKLL  15.3454
36. VRFL  15.0438
37. VHHL  14.1228
38. PEWY  14.0361
39. PRVL  13.9079
40. PMNV  12.9651
41. VMNY  12.7895
42. SRAL  12.4506
43. INAL  12.2423
44. VRSI  11.7832
45. LLAM  10.8556
46. VLSL  10.8506
47. VEAL  10.756
48. PWKL  9.9628
49. PFLL  9.0855
50. GRNL  8.8117
51. GRAL  7.9443
52. QQGL  6.4014
53. SYNL  6.0933
54. SLAL  6.0193
55. VWPL  5.2943
56. YQGL  4.3322
57. GRAM  2.5449
58. PRNT  2.5391
59. VEML  2.1238
60. VWML  1.4023
61. GYAL  0.5867
62. PWSV  0.3793
63. VFSI  0.2237
64. PLKV  0.2165
65. SHGL  0.2009
66. TFHL  0.1298

Same assay, conditions: tetramer annotation of MMP-2 cleavage sites in all substrates from MEROPS

AAGL was tested, and the “relative probability (RP)” value was 29.36.

Same assay, conditions: tetramer clusters unique to the MMP-2 selectome, MMP-2 RP

In order of falling relative_probability:
1. MASL [P3-P1' tetramer cluster]  31.68
2. HANL [P3-P1' tetramer cluster]  30.86
3. MSNL [P3-P1' tetramer cluster]  30.28
4. LGAM [P3-P1' tetramer cluster]  29.74
5. MSWM [P3-P1' tetramer cluster]  29.68
6. LGEL [P3-P1' tetramer cluster]  29.44
7. IAAI [P3-P1' tetramer cluster]  29.40

Same assay, conditions: tetramer probability in MMP2 set / naive library; 200 nM protease, 2 h, 37°C

PSNL [P3-P1' tetramer cluster] was tested, and the “relative probability (RP)” value was 36.5166.
